The results in this text go back to US20240043404A1 (AbbVie Inc., priority 2009, published 2024).

The test system of the experiment is RS4;11 cells. The experiment can be described thus: RS4;11 cell viability assay (CellTiter Glo).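 Also: acute lymphoblastic leukemia line RS4,11, EC50 derived from percentage of viable cells after treatment relative to untreated controls, cell killing taken as a measure of Bcl-2 inhibition.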 Type of experiment: cell-based, human. The note with it: Homo sapiens, RS4-11, 48 h, 50,000 cells per well, 10% human serum, 48 hours; read-out: RS4; 11 EC50 Values.
Method: The acute lymphoblastic leukemia (ALL) cell line RS4;11 was used as the primary human cell line to assess the cellular activity of Bcl-2 selective agents in vitro and their efficacy in vivo.
Cell cytotoxicity EC50 values were assessed using CellTiter Glo (Promega) according to the manufacturer's recommendations. The EC50 values were determined as a percentage of viable cells following treatment compared to the untreated control cells.
As for `CC1(C)CCC(CN2CCN(c3ccc(C(=O)NS(=O)(=O)c4cnc(OCC5CCOCC5)c(Cl)c4)c(Oc4cnc5[nH]ccc5c4)c3)CC2)=C(c2ccc(Cl)cc2)C1` [Example 40, 4-(4-{[2-(4-chlorophenyl)-4,4-dimethylcyclohex-1-en-1-yl]methyl}piperazin-1-yl)-N-{[5-chloro-6-(tetrahydro-2H-pyran-4-ylmethoxy)pyridin-3-yl]sulfonyl}-2-(1H-pyrrolo[2,3-b]pyridin-5-yloxy)benzamide], the EC50 amounted to 99.7 nM.

For the compound `CC1(C)CCC(CN2CCN(c3ccc(C(=O)NS(=O)(=O)c4ccc(N[C@@H]5CCN(C(CF)CF)C5)c([N+](=O)[O-])c4)c(Oc4cnc5[nH]ccc5c4)c3)CC2)=C(c2ccc(Cl)cc2)C1` [Example 207, 4-(4-{[2-(4-chlorophenyl)-4,4-dimethylcyclohex-1-en-1-yl]methyl}piperazin-1-yl)-N-{[4-({(3R)-1-[2-fluoro-1-(fluoromethyl)ethyl]pyrrolidin-3-yl}amino)-3-nitrophenyl]sulfonyl}-2-(1H-pyrrolo[2,3-b]pyridin-5-yloxy)benzamide], the EC50 amounted to 3.76 nM.

`CN1CCC[C@H]1C(=O)N1CCC(COc2ccc(S(=O)(=O)NC(=O)c3ccc(N4CCN(CC5=C(c6ccc(Cl)cc6)CC(C)(C)CC5)CC4)cc3Oc3cnc4[nH]ccc4c3)cc2Cl)CC1` [Example 312, N-[(3-chloro-4-{[1-(1-methyl-L-prolyl)piperidin-4-yl]methoxy}phenyl)sulfonyl]-4-(4-{[2-(4-chlorophenyl)-4,4-dimethylcyclohex-1-en-1-yl]methyl}piperazin-1-yl)-2-(1H-pyrrolo[2,3-b]pyridin-5-yloxy)benzamide]: the EC50 came out at 16.2 nM.

On to `COCCOCCS(=O)(=O)c1ccc(S(=O)(=O)NC(=O)c2ccc(N3CCN(CC4=C(c5ccc(Cl)cc5)CC(C)(C)CC4)CC3)cc2Oc2cnc3[nH]ccc3c2)cc1[N+](=O)[O-]` [Example 59, 4-(4-{[2-(4-chlorophenyl)-4,4-dimethylcyclohex-1-en-1-yl]methyl}piperazin-1-yl)-N-[(4-{[2-(2-methoxyethoxy)ethyl]sulfonyl}-3-nitrophenyl)sulfonyl]-2-(1H-pyrrolo[2,3-b]pyridin-5-yloxy)benzamide], for which the EC50 was 722 nM.

For `CC1(C)CCC(CN2CCN(c3ccc(C(=O)NS(=O)(=O)c4ccc(OC[C@@H]5CN(C6COC6)C[C@H]5CF)c([N+](=O)[O-])c4)c(Oc4cnc5[nH]ccc5c4)c3)CC2)=C(c2ccc(Cl)cc2)C1` (relative stereo) [Example 137, 4-(4-{[2-(4-chlorophenyl)-4,4-dimethylcyclohex-1-en-1-yl]methyl}piperazin-1-yl)-N-[(4-{[trans-4-(fluoromethyl)-1-oxetan-3-ylpyrrolidin-3-yl]methoxy}-3-nitrophenyl)sulfonyl]-2-(1H-pyrrolo[2,3-b]pyridin-5-yloxy)benzamide], the EC50 was found to be 12.7 nM.

Regarding `CN(C)CCCOc1ccc(CNc2ccc(S(=O)(=O)NC(=O)c3ccc(N4CCN(CC5=C(c6ccc(Cl)cc6)CC(C)(C)CC5)CC4)cc3Oc3cnc4[nH]ccc4c3)cc2[N+](=O)[O-])cc1` [Example 197, 4-(4-{[2-(4-chlorophenyl)-4,4-dimethylcyclohex-1-en-1-yl]methyl}piperazin-1-yl)-N-{[4-({4-[3-(dimethylamino)propoxy]benzyl}amino)-3-nitrophenyl]sulfonyl}-2-(1H-pyrrolo[2,3-b]pyridin-5-yloxy)benzamide], the EC50 is 12.5 nM.

Consider `CN(C)CC(=O)N1CCOC(CNc2ccc(S(=O)(=O)NC(=O)c3ccc(N4CCN(CC5=C(c6ccc(Cl)cc6)CC(C)(C)CC5)CC4)cc3Oc3cnc4[nH]ccc4c3)cc2[N+](=O)[O-])C1` (stereo not shown) [Example 215, 4-(4-{[2-(4-chlorophenyl)-4,4-dimethylcyclohex-1-en-1-yl]methyl}piperazin-1-yl)-N-{[4-({[4-(N,N-dimethylglycyl)morpholin-2-yl]methyl}amino)-3-nitrophenyl]sulfonyl}-2-(1H-pyrrolo[2,3-b]pyridin-5-yloxy)benzamide], for which the EC50 was determined as 0.56 nM.
